According to patent US10046007B2, “Compositions and methods for treatment of short telomere disorders” (PRESCIENT PHARMA LLC, priority 2015, dated 2018):
“Also recorded” adds a separate entry of the source. Where two headings read alike, the source gives them in different places.

Test system: bleomycin-induced pulmonary fibrosis
Description: Bleomycin solution: bleomycin (commercially available from SigmaAldrich) in PBS was used for intra-tracheal bleomycin administration. (0.04 U of bleomycin in 50 μl in PBS/mouse/per inhalation).
13 female mice (commercially available from Charles River Laboratories, BALB/C) were randomly divided into 4 groups, as follows:
Each mouse was anesthetized with 87.5 mg ketamine/kg and 12.5 mg xyline/kg cocktail 0.1 ml/20 g body weight IM. For both lithium and bleomycin intra-tracheal administration, tracheal intubation was performed using with a 23 gauge IV catheter through the mouth, followed by insertion of PE-10 tubing into the trachea. After placement of the PE-10 tubing inside the trachea, the 23 gauge iv catheter was quickly removed. Lithium or bleomycin was instilled through the PE-10 tubing. The instillation volume was 50 μl each administration for each mouse. The procedure time was around 15 minutes per mouse.
For Group 1 (n=1), no treatment was administered and the mouse was sacrificed as control.
The mice was sacrificed at 21 days after first lithium administration. The mice were sacrificed using pentobarbital 200 mg/kg ip. After the mice were sacrificed, the lungs were quickly harvested and perfused with 10% formalin buffer through the trachea. The lung tissue was then fixed in 10% formalin buffer for 3 days.
For Group 3 (n=6), the mice were pre-treated with intra-tracheal lithium instillation (0.15 mM in 50 μl saline) every other day for 3 administrations. 7 days after the final lithium pre-treatment, intra-tracheal bleomycin was instilled (0.04 U in 50 μl saline). The mice in this group were then sacrificed 14 days after bleomycin administration. The mice were sacrificed using pentobarbital 200 mg/kg ip. After the mice were sacrificed, the lungs were quickly harvested and perfused with 10% formalin buffer through the trachea. The lung tissue was then fixed in 10% formalin buffer for 3 days.
For Group 4 (n=5), only intra-tracheal bleomycin was instilled (0.04 U in 50 μl saline). The mice in this group were then sacrificed 14 days after bleomycin administration. The mice were sacrificed using pentobarbital 200 mg/kg ip. After the mice were sacrificed, the lungs were quickly harvested and perfused with 10% formalin buffer through the trachea. The lung tissue was then fixed in 10% formalin buffer for 3 days.
Following the 3 day period, macroscopical examination of the lung tissue was performed by dissection. The lung tissue were cut into 1-2 mm slices and visually inspected for areas of grey-white discoloration. […] The lung slices were then embedded in paraffin and sectioned into 5-μm-thick sections. Hematoxylin and eosin (H&E) and trichrome staining (abcam; ab150686) were performed for tissue samples from each group. The stained slides were then examined under light microscope (Olympus BX51) and photographed (Olympus DP-73 digital camera).
An Ashcroft score was then calculated for each of the group (T Ashcroft at al., Simple method of estimating severity of pulmonary fibrosis on a numerical scale. J Clin Pathol 1988; 41:467-470). The Ashcroft score provides a simple method of estimating severity of pulmonary fibrosis on a numerical scale.

## O=C([O-])[O-].[Li+].[Li+] [lithium carbonate]
Group 2: lithium inhalation only
  signs of lung tissue damage, macroscopic and microscopic (H&E, trichrome): did not show any macroscopically or microscopically sign of lung tissue damage
Group 2: lithium inhalation only, 0.15 mM lithium carbonate 50 μl intratracheal every other day for 3 administrations, sacrificed at 21 days
  Ashcroft score: 0
Group 3: intra-tracheal lithium 0.15 mM in 50 μl every other day for 3 administrations, bleomycin 0.04 U 7 days after final lithium, sacrificed 14 days after bleomycin
  Ashcroft score: 0
Group 3: lithium pre-treatment followed by bleomycin
  signs of lung tissue damage, macroscopic and microscopic (H&E, trichrome): did not reveal any signs macroscopically or microscopically of lung tissue damage
Lithium pre-treatment by inhalation, mice
  pulmonary fibrosis development induced by bleomycin: completely abolishes

## bleomycin
Group 4: bleomycin alone
  macroscopic examination of lung sections (grey-white discoloration): only areas of such discoloration were found in the lung tissue of Group 4 mice; also recorded: multiple areas of grey-white discoloration mostly in peri-pleural areas
  microscopic examination of discoloured lung areas: profound fibrotic changes
Group 4: intra-tracheal bleomycin alone 0.04 U in 50 μl, sacrificed 14 days after bleomycin
  Ashcroft score: 4.03
